Test results reported in US9393288B2, “Methods of treating diseases associated with PPARγ” (The University of Vermont and State Agricultural College, priority 2012, dated 2016).
“Also recorded” adds a separate entry of the source.

Test system: parenchymal arterioles (PA)
Assay: Pressurized arteriograph: vascular reactivity and structure of PA from female SHR
Format: in vivo, rat
Description: A separate group of SHR-F was used to determine if relaxin crosses the BBB by treating with relaxin (4 μg/hr) for 14 days and measuring relaxin concentration in cerebrospinal fluid (CSF) and serum (SHR-F-Rln-CSF, n=4). For the osmotic pump implant, animals were anesthetized with 3% isoflurane and minipumps implanted subcutaneously in the back of the neck. All animals received post-surgical analgesia (buprenorphine, 50 μg/kg, s.c.). Relaxin infusion was continuous for 14 days until animals were euthanized for isolated vessel experiments and tissue collection.
After collecting trunk blood, the brain was quickly removed and placed in cold physiological salt solution (PSS). PA between the M1 and M2 region of the MCA territory and the MCA from the same animals were carefully isolated from WKY-F, SHR-F, and SHR-F-Rln groups and mounted on glass cannulas. PA were identified as branches off the MCA that penetrated into the brain tissue, as previously described (han, S. L., and Cipolla, M. J. (2011) Relaxin causes selective outward remodeling of brain parenchymal arterioles via activation of peroxisome proliferator-activated receptor-gamma. FASEB J 25, 3229-3239). […] The proximal cannula was connected to an in-line pressure transducer and a servo-null pressure control system (Living Systems Instrumentation, Burlington, Vt., USA) that allowed intravascular pressure to be maintained at a set pressure or changed at a variable rate. The distal cannula was closed during the experiment to avoid flow-mediated responses. Temperature and pH were continuously measured and maintained at 37.0±0.5° C. and 7.40±0.05, respectively. Measurements of inner diameter (ID) and wall thickness (WT) were made via video microscopy (Living Systems Instrumentation, Burlington, Vt.).
PA and MCA were equilibrated for 1 hour, after which myogenic activity was determined by stepwise increases in pressure from 40 to 100 mmHg for PA or 50 to 175 mmHg for MCA. ID and WT were measured at each pressure once stable. Endothelium-dependent dilation was studied by adding NS309 (10^−8-10^−5 M), an activator of small- and intermediate-conductance calcium-activated potassium channels (SKCa, IKCa). NS309 was washed out of the bath and a single concentration of the nitric oxide synthase (NOS) inhibitor L-nitro-n-arginine (L-NNA, 10^−4 M) added to the bath. Constriction to NOS inhibition was used as an additional indicator of endothelial function. In the presence of L-NNA, sodium nitroprusside (SNP, 10^−8-10^−5 M) was added to the bath to assess endothelium-independent vasodilation. To obtain structural measurements, ID and WT were recorded at pressures between 5 to 200 mmHg for PA or 5 to 175 mmHg for MCA in zero-calcium PSS containing ethylene glycol tetra-acetic acid (EGTA) and outer diameter (OD) and distensibility calculated.
Percent tone was calculated as percent decrease in ID from the passive diameter at each intravascular pressure: [1−(IDactive/IDpassive)]×100. Percent reactivity for vasodilators was calculated as ((IDdose−IDstart)/(IDpassive−IDstart))×100. Percent constriction for vasoconstrictor was calculated as (1−(IDdose/IDstart))×100. OD was calculated from measured ID and WT: ID+2WT. Distensibility at a given pressure was calculated as (IDpassive−IDoriginal)/(IDoriginal)×100, where IDoriginal is defined as passive inner diameter determined at lowest pressure (5 mmHg). Data from qPCR study were analyzed using the −2^ΔΔCT method, as described previously (Livak, K. J., and Schmittgen, T. D. (2001) Analysis of relative gene expression data using real-time quantitative PCR and the 2(−Delta Delta C(T)) Method. Methods 25, 402-408). Data were removed when the Ct values of technical replicates differed by more than 0.5.

[1] = SHR-F-Rln vs untreated SHR-F, listed as Relaxin

What does the source list for relaxin?
Reactivity of PA to NS309 (inner diameter increased by) (NS309 10^−6 M, vs 39±11% in SHR-F, p=0.058): 67±8%; PA inner diameter (SHR treated with human relaxin-2 4 μg/hr 14 days, untreated groups 58±3 and 49±3, p<0.05): 56±4 μm; PA distensibility (SHR, relaxin 4 μg/hr 14 days, vs 10±2% in SHR-F, p<0.05): 34±2%; Myogenic reactivity (active ID) of PA (SHR-F-Rln vs untreated SHR-F): did not affect; Myogenic tone (percent tone) of PA (SHR-F-Rln vs untreated SHR-F): did not affect; Passive ID of PA (SHR-F-Rln vs untreated SHR-F): increases the size; also recorded: increased; Passive OD of PA (SHR-F-Rln vs untreated SHR-F): increased; Passive distensibility of PA (SHR-F-Rln vs untreated SHR-F): increased; Myogenic tone (percent tone) of PA [1]: without affecting; Passive ID of PA [1]: increased; Passive distensibility of PA [1]: big effect; also recorded: increased; Reactivity of PA to the SKCa/IKCa activator NS309 [1]: tended to increase; also recorded: increased; Passive ID of PA (at 5 mmHg, vs 44±2 μm in SHR-F): 42±3 μm; Kind of structural remodeling of PA (hypertensive rats, relaxin alone): outward eutrophic remodeling
